One compound from publication PMC12587574, “Mass balance, pharmacokinetics, metabolism, and excretion of radiolabeled acoziborole, a potential novel treatment for human African trypanosomiasis, following single microtracer oral dose to humans” (Antimicrobial Agents and Chemotherapy, 2025) can be followed below.

Read-outs that look alike come from different tables or passages of the source.

This data set can be described thus: Plasma pharmacokinetics of acoziborole and SCYX-3109 by LC-MS/MS, phase I mass balance study. It is filed as in vivo, human. Here is the method: This single-center, open-label, single group, non-randomized, single oral dose study was performed at Quotient Sciences Ltd (Ruddington, Nottingham, UK). Clinical trial authorization was obtained from the Medicines and Healthcare Products Regulatory Agency (UK). Approval for administration of [^14C]-acoziborole was obtained from an expert committee sponsored by the Department of Health and Social Care in the United Kingdom (Administration of Radioactive Substances Advisory Committee [ARSAC]), and from the ARSAC-accredited Quotient Sciences’ nuclear medicine practitioner. This study was approved by a local research ethics committee in the United Kingdom and was conducted in compliance with the Declaration of Helsinki and the International Conference on Harmonisation E6 Guideline for Good Clinical Practice. The study was registered in clinicaltrials.gov (NCT04270981) and in EudraCT (reference 2019-004059-35). Written informed consent was obtained from all participants before undertaking any study-related procedures.
Participants were admitted in the evening of the day before dosing (Day −1) and were dosed in the morning of Day 1, following an overnight fast from food and drink of a minimum of 9 h. They remained fasted until approximately 4 h post-dose, at which time lunch was provided. Participants remained resident in the clinic until up to 240 h after dosing (up to Day 11). […] However, due to the COVID-19 pandemic, instead of returning for the outpatient visits, participants were requested to perform home collection of feces for a 48-h period (i.e., Days 31–33, Days 59–61, Days 89–91, and Days 119–121). Collected samples were couriered to the clinical unit at the end of each collection period. A follow-up call took place 5–10 days after the final outpatient visit to ensure the well-being of participants.
Venous blood samples were collected via an indwelling cannula or by venepuncture. A 12 mL sample was taken into heparinized glass tube and chilled on ice immediately before IP administration and 3 mL samples were taken at 1, 4, 9, 12, 24, 48, 72, 96, 120, 144, 168, and 240 h and on Days 15, 31, 59, 89, and 119 after IP administration. The first 0.5 mL of blood withdrawn via cannula was discarded. One aliquot of heparinized whole blood (1 mL) per time point was stored at or below −20°C for total radioactivity analysis. The remaining blood was centrifuged, and the harvested plasma was stored at approximately −20°C for bioanalysis or transferred (exactly 1 mL) into polypropylene tubes pre-filled with 5 µL formic acid. One plasma sample (0.5 mL) was used for metabolite profiling while another (0.5 mL) was used for parent drug and SCYX-3109 metabolite analysis. The remaining plasma was used for total radioactivity analysis.
SGS Belgium (Wavre, Belgium) performed the analysis to determine acoziborole and SCYX-3109 concentrations, using validated bioanalytical assays with liquid chromatography with tandem mass spectrometry (LC-MS/MS) with a Supelco Ascentis Express C8, 2.7 µm, 50 × 2.1 mm I.D. separation column. In plasma, the lower limit of quantification (LLOQ) was 25 ng/mL for acoziborole and 10 ng/mL for SCYX-3109. In urine, the LLOQ was 10 ng/mL for both acoziborole and SCYX-3109.
PK parameters were calculated based on actual sampling times using standard non-compartmental analysis and WinNonlin version 8.1 software (Certara, Princeton, NJ, USA).
The SCYX-3109 to parent ratios were calculated based on Cmax and AUC0–∞.

Consider `CC1(C)OB(O)c2cc(NC(=O)c3ccc(F)cc3C(F)(F)F)ccc21` [acoziborole], for which the “mean t1/2 ratio of acoziborole to total radioactivity in blood” value (960 mg single oral dose) is recorded as 1.1. Where the note is “960 mg single oral dose”, the “mean t1/2 ratio of acoziborole to total radioactivity in plasma” value is given as 1.0. In addition, the “share of the radioactivity in plasma, based on AUC0–240h and AUC0–∞ ratios of acoziborole to total radioactivity” value (960 mg single oral dose) is listed as ~100%. The compound also had a t1/2 in plasma (960 mg single oral dose of acoziborole, N = 6, mean ± SD) of 11.34 ± 1.51 days. Moreover, the “CL/F (apparent total body clearance)” value (960 mg single oral dose, plasma, N = 6, mean ± SD) is 0.2 ± 0.0 L/h. The “time first detected in plasma after dosing” value (after 960 mg single oral [14C]-acoziborole) turned out to be 1 h. Moreover, the AUC(0-t) by setting is: (human, plasma, po, 960 mg, 960 mg single oral dose of acoziborole, N = 6, mean ± SD, read-out: AUC0–240h in plasma) 2520 µg·h/mL; (human, plasma, po, 960 mg, 960 mg single oral dose of acoziborole, N = 6, mean ± SD, read-out: AUC0–t in plasma) 5920 µg·h/mL. Besides, the time of peak concentration (Tmax) (commonly the time at which the peak concentration occurs) runs as follows: (human, plasma, po, 960 mg, 960 mg single oral dose of acoziborole, N = 6, mean ± SD, read-out: tmax in plasma) 52 ± 9.8 h; (male, human, plasma, po, 960 mg, 960 mg single oral dose, N = 6, read-out: individual tmax values in plasma) 48 to 72 h; (male, human, plasma, po, 960 mg, 960 mg single oral dose, N = 6, read-out: median tmax in plasma) 48 h. In addition, the AUC(0-inf) (human, plasma, 960 mg single oral dose of acoziborole, N = 6, mean ± SD, read-out: AUC0–∞ in plasma) came out at 6450 µg·h/mL. For the same compound, the half-life (male, human, plasma, po, 960 mg, 960 mg single oral dose of acoziborole, N = 6, mean ± SD, read-out: t1/2 in plasma (converted)) was 11.3 days. Moreover, the maximum concentration (Cmax) (usually the maximum level reached in the sampled fluid or tissue) (male, human, plasma, 960 mg single oral dose of acoziborole, healthy males, N = 6, mean ± SD) came out at 14200 ± 1980 ng/mL. Moreover, the Vd/F (male, human, 960 mg single oral dose, plasma, N = 6, mean ± SD, read-out: Vz/F (apparent volume of distribution during the terminal phase)) was determined as 59.1 ± 7.3 L.
